ChEMBL document CHEMBL5252531, “2015 Philip S. Portoghese Medicinal Chemistry Lectureship. Curing Hepatitis C Virus Infection with Direct-Acting Antiviral Agents: The Arc of a Medicinal Chemistry Triumph” (J Med Chem, 2016)
pEC50: −log10 of the molar value. Values after ≈ are worked out from the molar mass of the structure shown.

What was measured:
[1] = test system: Pregnane X receptor (Homo sapiens); test: PXR activation
[2] = test system: Hepatitis C virus; test: Antiviral activity against HCV GT1b-genotype assessed as viral growth inhibition measured after 24 hrs; assay type: functional, organism-based, Hepacivirus hominis; details: for pEC50: Hepatitis C virus, GT1b-genotype, 24 h
[3] = Solubility of the compound; assay type: physicochemical
[4] = Oral bioavailability in Sprague-Dawley rat at 10 mg/kg measured after 4 hrs; assay type: ADME, organism-based; details: in vivo
[5] = test system: Hepatitis C virus; test: Antiviral activity against HCV GT1a-genotype assessed as inhibition of viral replication; assay type: functional, organism-based, Hepacivirus hominis
[6] = Clearance in Wistar rat at 10 mg/kg, po measured after 4 hrs; assay type: ADME, organism-based; details: in vivo
[7] = Clearance in Wistar rat at 10 mg/kg, iv measured after 4 hrs; assay type: ADME, organism-based; details: in vivo
[8] = test system: Hepatitis C virus; test: Antiviral activity against HCV GT1b-genotype assessed as inhibition of viral replication measured after 24 hrs; assay type: functional, organism-based, Hepacivirus hominis
[9] = test system: Hepatitis C virus; test: Antiviral activity against HCV genotype 1a; assay type: functional, organism-based, Hepacivirus hominis
[10] = Aqueous solubility of the compound at pH 2.2 measured after 24 hrs; assay type: physicochemical

## COc1ccc2c(c1)[C@@H]1C[C@]1(C(=O)N1CC(C)N(C)C(C)C1)Cn1c-2c(C2CCCCC2)c2ccc(C(=O)NS(=O)(=O)N(C)C)cc21 (some centres undefined)
[1]
  pEC50: < 4.30
[2]
  pEC50: 8.52
[3]
  solubility: 34 µg/mL (≈ 51.4 µM)
[4]
  bioavailability: 17%
[5]
  pEC50: 9.00

## COc1ccc2c(c1)C1CC1(C(=O)N1CC3CCC(C1)N3C)Cn1c-2c(C2CCCCC2)c2ccc(C(=O)NS(=O)(=O)N(C)C)cc21 (racemic)
[6]
  CL: 55.4 mg/mL/kg
[7]
  CL: 20.6 mg/mL/kg
[2]
  pEC50: 7.41
[5]
  pEC50: 7.80

## O=C(O)c1ccc2c(C3CCCCC3)c3n(c2c1)CC(C(=O)N1CCOCC1)Cc1ccccc1-3 (racemic)
[8]
  pEC50: 6.70
[5]
  pEC50: 8.70

## COc1ccc2c(c1)[C@@H]1C[C@]1(C(=O)N1[C@@H]3CC[C@H]1CN(C)C3)Cn1c-2c(C2CCCCC2)c2ccc(C(=O)NS(=O)(=O)N(C)C)cc21 [BECLABUVIR]
[2]; time 24 hrs
  Activity: 1.3 log10 IU/mL
[9]
  pEC50: 6.70
[10]
  solubility at 24 h: > 1600 µg/mL
